# Measured values as given in patent publication US10947213B1 (Merck Patent GmbH, priority 2015, dated 2021).
# Where a name gives a salt, the structure may show the parent alone.
# Target: T1, TLR7/NFKb HEK cells (Homo sapiens, UniProt Q9NYK1)
# T1 construct: expressed in transfected cells; host or cells: HEK cells (TLR7/NFKb reporter line)
# T1 sequence (Q9NYK1 27-1049): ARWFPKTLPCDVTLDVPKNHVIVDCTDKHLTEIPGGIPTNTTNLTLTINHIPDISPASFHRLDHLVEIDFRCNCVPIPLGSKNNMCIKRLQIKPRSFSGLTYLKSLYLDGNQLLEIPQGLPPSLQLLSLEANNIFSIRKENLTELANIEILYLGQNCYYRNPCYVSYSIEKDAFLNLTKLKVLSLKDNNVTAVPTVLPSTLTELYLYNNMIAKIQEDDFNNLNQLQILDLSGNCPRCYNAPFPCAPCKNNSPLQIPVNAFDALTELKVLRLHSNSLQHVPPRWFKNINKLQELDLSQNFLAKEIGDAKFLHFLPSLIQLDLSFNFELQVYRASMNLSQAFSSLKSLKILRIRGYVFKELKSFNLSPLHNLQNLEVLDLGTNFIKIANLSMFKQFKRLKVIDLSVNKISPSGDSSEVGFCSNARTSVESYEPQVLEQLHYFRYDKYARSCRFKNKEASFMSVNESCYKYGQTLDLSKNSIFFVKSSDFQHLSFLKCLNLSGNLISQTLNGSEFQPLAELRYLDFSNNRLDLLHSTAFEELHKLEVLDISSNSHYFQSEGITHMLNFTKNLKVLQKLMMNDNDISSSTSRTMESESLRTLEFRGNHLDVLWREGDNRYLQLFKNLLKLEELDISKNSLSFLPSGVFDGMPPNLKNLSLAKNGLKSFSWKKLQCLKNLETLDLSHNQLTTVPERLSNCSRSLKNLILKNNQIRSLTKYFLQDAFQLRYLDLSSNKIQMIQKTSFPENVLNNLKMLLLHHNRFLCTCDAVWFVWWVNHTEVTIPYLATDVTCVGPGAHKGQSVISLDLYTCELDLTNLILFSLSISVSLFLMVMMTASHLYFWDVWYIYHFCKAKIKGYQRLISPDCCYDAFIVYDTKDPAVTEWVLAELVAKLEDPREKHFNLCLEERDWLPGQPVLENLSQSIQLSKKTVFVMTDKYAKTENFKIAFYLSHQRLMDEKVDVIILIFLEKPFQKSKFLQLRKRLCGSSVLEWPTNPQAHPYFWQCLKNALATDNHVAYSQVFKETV
# Test: HEK Cell Assay (TLR7/NFKb reporter, Steady-Glo luciferase readout)
# Type: cell-based
# Conditions: 30 min compound preincubation, then R*48 agonist for 5 hours, read-out: Potency
# Summary of the method: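 Steady-Glo luminescence after 5 h stimulation with R*48 agonist, following 30 min compound preincubation. Assay run in HEK cells carrying a TLR7/NFKb luciferase reporter, plated at 5000 cells/well and grown 24 h at 37° C (10% CO2) before treatment.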
row,Compound,IC50 [nM]
1,"CC(C)[C@@H](N)C(=O)N[C@@H]1C[C@H](C)CN(c2ccnc3nccnc23)C1 [Compound 104, (2R)-2-amino-3-methyl-N-[(3R,5S)-5-methyl-1-[pyrido[2,3-b]pyrazin-8-yl]piperidin-3-yl]butanamide]",> 10000
2,"CC(C)[C@H](N)C(=O)N[C@@H]1C[C@H](C)CN(c2ccnc3nccnc23)C1 [Compound 105, (2S)-2-amino-3-methyl-N-[(3R,5S)-5-methyl-1-[pyrido[2,3-b]pyrazin-8-yl]piperidin-3-yl]butanamide]",< 1000
3,"C[C@H]1C[C@@H](NC(=O)[C@H](N)CO)CN(c2ccc(C#N)c3nccnc23)C1 [Compound 106, (2R)-2-amino-N-[(3R,5S)-1-(8-cyanoquinoxalin-5-yl)-5-methylpiperidin-3-yl]-3-hydroxypropanamide]",< 1000
4,"C[C@H]1C[C@@H](NC(=O)[C@H](N)CO)CN(c2ccnc3nccnc23)C1 [Compound 107, (2R)-2-amino-3-hydroxy-N-[(3R,5S)-5-methyl-1-[pyrido[2,3-b]pyrazin-8-yl]piperidin-3-yl]propanamide]",> 10000
5,"C[C@H]1C[C@@H](NC(=O)CN2CCOCC2)CN(c2ccc(C#N)c3nccnc23)C1 [Compound 108, N-[(3R,5S)-1-(8-cyanoquinoxalin-5-yl)-5-methylpiperidin-3-yl]-2-(morpholin-4-yl)acetamide]",< 1000
6,"C[C@H]1C[C@@H](NC(=O)CN2CCN(C)CC2)CN(c2ccc(C#N)c3nccnc23)C1 [Compound 109, N-[(3R,5S)-1-(8-cyanoquinoxalin-5-yl)-5-methylpiperidin-3-yl]-2-(4-methylpiperazin-1-yl)acetamide]",< 1000
7,"C[C@H]1C[C@@H](NC(=O)CN2CCOCC2)CN(c2ccnc3nccnc23)C1 [Compound 110, N-[(3R,5S)-5-methyl-1-[pyrido[2,3-b]pyrazin-8-yl]piperidin-3-yl]-2-(morpholin-4-yl)acetamide]",> 10000
8,"C[C@H]1C[C@@H](NC(=O)CC(F)(F)F)CN(c2ccc(C#N)c3nccnc23)C1 [Compound 111, N-[(3R,5S)-1-(8-cyanoquinoxalin-5-yl)-5-methylpiperidin-3-yl]-3,3,3-trifluoropropanamide]",< 1000
9,"C[C@H]1C[C@@H](NC(=O)[C@@H](N)Cc2cccnc2)CN(c2ccc(C#N)c3nccnc23)C1 [Compound 116, (2S)-2-amino-N-[(3R,5S)-1-(8-cyanoquinoxalin-5-yl)-5-methylpiperidin-3-yl]-3-(pyridin-3-yl)propanamide]",< 1000
10,"C[C@H]1C[C@@H](NC(=O)[C@@H](N)c2ccccc2)CN(c2ccc(C#N)c3nccnc23)C1 [Compound 117, (2S)-2-amino-N-[(3R,5S)-1-(8-cyanoquinoxalin-5-yl)-5-methylpiperidin-3-yl]-2-phenylacetamide]",< 1000
11,"C[C@H]1C[C@@H](NC(=O)[C@@H](N)Cc2cccnc2)CN(c2ccnc3nccnc23)C1 [Compound 118, (2S)-2-amino-N-[(3R,5S)-5-methyl-1-[pyrido[2,3-b]pyrazin-8-yl]piperidin-3-yl]-3-(pyridin-3-yl)propanamide]",1000 to 10000
12,"C[C@H]1C[C@@H](NC(=O)[C@H](N)c2ccccc2)CN(c2ccc(C#N)c3nccnc23)C1 [Compound 119, (2R)-2-amino-N-[(3R,5S)-1-(8-cyanoquinoxalin-5-yl)-5-methylpiperidin-3-yl]-2-phenylacetamide]",< 1000
13,"C[C@H]1C[C@@H](NC(=O)CC(F)(F)F)CN(c2ccnc3nccnc23)C1 [Compound 120, 3,3,3-trifluoro-N-[(3R,5S)-5-methyl-1-[pyrido[2,3-b]pyrazin-8-yl]piperidin-3-yl]propanamide]",> 10000
14,"C[C@H]1C[C@@H](NCC(N)=O)CN(c2ccnc3nccnc23)C1 [Compound 121, 2-[[(3R,5S)-5-methyl-1-[pyrido[2,3-b]pyrazin-8-yl]piperidin-3-yl]amino]acetamide]",> 10000
15,"C[C@H]1C[C@@H](NCC(N)=O)CN(c2ccc(C#N)c3nccnc23)C1 [Compound 122, 2-[[(3R,5S)-1-(8-cyanoquinoxalin-5-yl)-5-methylpiperidin-3-yl]amino]acetamide]",< 1000
16,"C[C@H]1C[C@@H](NC2CCNC2=O)CN(c2ccc(C#N)c3nccnc23)C1 (stereo partly drawn) [Compound 123, 8-[(3S,5R)-3-methyl-5-[(2-oxopyrrolidin-3-yl)amino]piperidin-1-yl]quinoxaline-5-carbonitrile]",< 1000
17,"C[C@H]1C[C@@H](NC2CCN(C)C2=O)CN(c2ccnc3nccnc23)C1 (stereo partly drawn) [Compound 126, 1-methyl-3-[[(3R,5S)-5-methyl-1-[pyrido[2,3-b]pyrazin-8-yl]piperidin-3-yl]amino]pyrrolidin-2-one]",> 10000
18,"C[C@H]1C[C@@H](NC2CCNC2=O)CN(c2ccnc3nccnc23)C1 (stereo partly drawn) [Compound 127, 3-[[(3R,5S)-5-methyl-1-[pyrido[2,3-b]pyrazin-8-yl]piperidin-3-yl]amino]pyrrolidin-2-one]",> 10000
19,"C[C@H]1C[C@@H](NC(=O)C2(N)COC2)CN(c2ccnc3nccnc23)C1 [Compound 128, 3-amino-N-[(3R,5S)-5-methyl-1-[pyrido[2,3-b]pyrazin-8-yl]piperidin-3-yl]oxetane-3-carboxamide]",> 10000
20,"C[C@H]1C[C@@H](NC(=O)C2(N)COC2)CN(c2ccc(C#N)c3nccnc23)C1 [Compound 129, 3-amino-N-[(3R,5S)-1-(8-cyanoquinoxalin-5-yl)-5-methylpiperidin-3-yl]oxetane-3-carboxamide]",1000 to 10000
21,"C[C@H]1C[C@@H](NC(=O)Cc2c[nH]cn2)CN(c2ccc(C#N)c3nccnc23)C1 [Compound 130, N-[(3R,5S)-1-(8-cyanoquinoxalin-5-yl)-5-methylpiperidin-3-yl]-2-(1H-imidazol-4-yl)acetamide hydrochloride]",< 1000
22,"C[C@H]1C[C@@H](NC(=O)Cc2c[nH]cn2)CN(c2ccnc3nccnc23)C1 [Compound 131, 2-(1H-imidazol-4-yl)-N-[(3R,5S)-5-methyl-1-[pyrido[2,3-b]pyrazin-8-yl]piperidin-3-yl]acetamide]",> 10000
23,"C[C@H]1C[C@@H](NC(=O)Cc2cn(C)cn2)CN(c2ccc(C#N)c3nccnc23)C1 [Compound 132, N-[(3R,5S)-1-(8-cyanoquinoxalin-5-yl)-5-methylpiperidin-3-yl]-2-(1-methyl-1H-imidazol-4-yl)acetamide]",< 1000
24,"C[C@H]1C[C@@H](NC(=O)Cc2cn(C)cn2)CN(c2ccnc3nccnc23)C1 [Compound 133, N-[(3R,5S)-5-methyl-1-[pyrido[2,3-b]pyrazin-8-yl]piperidin-3-yl]-2-(1-methyl-1H-imidazol-4-yl)acetamide]",> 10000
25,"COCC(=O)N[C@@H]1C[C@H](C)CN(c2ccc(C#N)c3nccnc23)C1 [Compound 134, N-[(3R,5S)-1-(8-cyanoquinoxalin-5-yl)-5-methylpiperidin-3-yl]-2-methoxyacetamide]",1000 to 10000
26,"C[C@H]1C[C@@H](NC2COC2)CN(c2ccc(C#N)c3nccnc23)C1 [Compound 137, 8-[(3S,5R)-3-methyl-5-[(oxetan-3-yl)amino]piperidin-1-yl]quinoxaline-5-carbonitrile]",< 1000
27,"C[C@H]1C[C@@H](NC2CCOC2)CN(c2ccc(C#N)c3nccnc23)C1 (stereo partly drawn) [Compound 138, 8-[(3S,5R)-3-methyl-5-[(oxolan-3-yl)amino]piperidin-1-yl]quinoxaline-5-carbonitrile]",< 1000
